Literature values as cited in patent publication US11759418B1, “Composition for treating wounds, dermatitis, inflammation, and irritation” (Chrism Products, Inc., priority 2016, dated 2023).
Like-named read-outs stand apart in the source and are kept apart here.

What was measured:
wound healing process = conditions: results from histological analyses
[1] = chemically synthesized bulk allantoin

benzyl-dimethyl-tridecylazanium [Benzalkonium Chloride]
concentration producing mild skin irritation (skin; clinical studies, dermal use): ≥ 5%
concentration safe for dermal use (skin; in vivo): up to 0.5%

NC(=O)NC1NC(=O)NC1=O (stereo not shown) [Allantoin, 5-ureidohydantoin]
effect on wound healing process (wound healing process): benefits the wound healing process
safety / toxicity [1]: safe, non-toxic
Concentration (5% Glycerin in water, 20° C.): ca 0.8%
Concentration (50% Isopropanol in water, 25° C.): ca. 0.3%
Concentration (Ethanol, 20° C.): ca. 0.1%
Concentration (Propylene glycol, 25° C.): ca. 0.3%
Concentration (Water, 20° C.): ca. 0.4%
Concentration (Water, 75° C.): ca. 4.0%
